Assay results as given in patent US10016494B2, “Antigenic epitopes from EBV gp350/220 and uses thereof” (VALORISATION-HSJ, LIMITED PARTNERSHIP, priority 2014, dated 2018).

Experiments:
[1] = system: P3HR1 virus super-infection of Raji cells; test: EBV antibody neutralization assay; assay type: cell-based, Epstein-Barr virus; details: FIG. 2B, log10 dilutions of 0.01 to 10 μg/ml
Description: Antibody neutralization potency was measured as the inhibition of EBV early antigen (EA) expression upon super-infection of Raji cells by P3HR1 virus (33). Mixtures of concentrated virus (2×10^4 EA-inducing units) and serial dilutions of purified antibody were incubated in a final volume of 0.1 ml for 60 min at 37° C. prior to the addition of 5×10^4 Raji cells. The Raji cell-virus mixture was further incubated for 60 min at 37° C. followed by resuspension in RPMI medium and a 2-day incubation at 37° C. The number of Raji cells expressing EA after cell culture was measured by immunofluorescence, and relative antibody neutralization potency per μg of antibody was calculated.

[2] = system: anti-gp350 monoclonal antibody 72A1; test: Peptide ELISA: 72A1 antibody binding to plate-coated gp350 mimetic peptides; design: species or system murine; details: for binding to the 72A1 antibody: FIG. 4A, peptide coated on ELISA plate; for Notes: reactivity with the 72A1 monoclonal antibody: Table III
Description: (§1) Gp350 mimetic peptides that were synthesized and HPLC purified to >70% (Elim Biopharmaceuticals®, Hayward, Calif.) were suspended at 2.5 μg/mL in 0.1M carbonate buffer pH 9 prior to their overnight incubation at 4° C. as 100 μL aliquots in a 96 well ELISA plate (Ultident®, St. Laurent, QC). Peptide-coated plates were washed 4× with PBS:0.05% Tween-20®, blocked with 1% BSA:PBS and incubated for a minimum of 2 h at room temperature (RT) with anti-gp350 monoclonal antibody 72A1, or the isotype-matched, background-control anti-LMP1 monoclonal antibody S-12 and 1:100 dilutions of commercial intravenous gamma globulin (IVIG) (18). Bound monoclonal antibodies were detected using biotin-conjugated goat anti-mouse IgG, biotin-conjugated anti-human IgG and horseradish peroxidase (HRP)-conjugated streptavidin (Jackson Immunoresearch Laboratories®, West Grove, Pa.) in conjunction with 3,3′,5,5′-Tetramethylbenzidine substrate (TMB solution, Bioshop®, Burlington ON). HRP enzyme activity was stopped with an equal volume of 1N HCl and wells read at 450nm.

[3] = system: 72A1 antibody recognition of gp350 protein; test: Competition ELISA: 72A1 pre-incubated with gp350 mimetic peptides in solution, then tested for binding to gp350; design: species or system Epstein-Barr virus; details: for inhibition of 72A1 antibody recognition of gp350 protein: FIG. 4B, peptide allowed to interact with 72A1 in solution
Description: Whole cell ELISA was performed using CEM cells or CEM cells expressing gp350. The cells were washed with PBS, suspended at 1×10^6 cells/mL in PBS and 40 μL aliquots were added to each ELISA plate well. Plates were vacuum-dried prior to cell fixation with cold methanol. Plates were washed with PBS and wells blocked in 1% BSA:PBS prior to a 1 h exposure to monoclonal antibody or monoclonal antibody that was pre-incubated for 2 or more hours with gp350 mimetic peptides. Bound monoclonal antibodies were detected using biotin-conjugated goat anti-mouse IgG, HRP-conjugated streptavidin as outlined above.
Although peptide 3 contained the amino acid sequence EID shown by mutation to result in a loss of 72A1 binding (31), the lack of noted binding by peptide 3 may have been due to inappropriate adsorption to the ELISA plate that interfered with antibody binding. To avoid potential ELISA plate interference, gp350 mimetic peptides were allowed to interact with 72A1 antibody in solution, and later the antibody was tested for its ability to bind to native gp350 protein.

[4] = system: human IgG (IVIG, human EBV immune serum); test: Peptide ELISA with commercial intravenous gamma globulin (IVIG); assay type: binding; details: FIG. 5, thirty-nine lots of IVIG, ± SD
Description: as §1
Although p2 was recognized by the murine monoclonal antibody 72A1 and was capable of generating antibodies that recognized the gp350 neutralizing epitope in mice, it is unknown whether EBV-positive human sera would recognize this gp350 mimetic peptide. The determination of human IgG reactivity against each of the three peptides could serve as a surrogate indicator of whether the gp350 mimetic peptides would be immunogenic or capable of generating an anti-gp350 antibody response. […] This was followed by p1 at levels of 1.83±0.07 pg/ml and by p3 with antibody levels of 1.7±0.06 pg/ml.

[5] = Peptide immunization of mice: anti-peptide IgG by ELISA; assay type: in vivo, Balb/C female mice; details: FIG. 7A, KLH-coupled peptide 100 μg i.p., after third immunization, ± SEM
Description: (§2) Balb/C female mice were immunized intraperitoneally with 100 μg of keyhole limpet hemocyanin (KLH)-coupled with gp350 mimetic peptide (Sigma Conjugation Kit) emulsified in Sigma Adjuvant System (Sigma-Aldrich). Mice were re-injected every 21 days and blood was drawn 14 days after the second injection. Following the third immunization, IgG levels of peptide reactivity were measured by ELISA.
(§3) Balb/C female mice were immunized intraperitoneally with gp350 mimetic peptides as described in Example 1 above. Following the third immunization, IgG levels of peptide reactivity were measured by ELISA. All mice generated antibodies to their respective peptides with average antibody concentrations (pg/ml) of 97±46 SEM, 122±67 and 981±577 for p1, p2 and p3, respectively (FIG. 7A).

[6] = system: native gp350; test: Peptide immunization of mice: serum recognition of native gp350; assay type: in vivo, Balb/C female mice; details: FIG. 7B, same mice sera, ± SEM
Description: as §2, §3

[7] = system: 72A1 recognition of gp350; test: Sera from peptide-immunized mice blocking biotinylated-72A1 binding to gp350; assay type: in vivo, Balb/C female mice; details: FIG. 7C, pooled serum from peptide immunized mice, 1:50 dilution
Description: Histogram of biotinylated-72A1 binding to gp350 protein that was pre-exposed to mouse preimmune (preimm) serum, pooled serum from peptide immunized mice (1:50 dilution), or 1 μg/ml 72A1, or 0.5 mg/ml BSA. Average OD±SEM was derived from three separate experiments. P-values≤0.05 are indicated (*).
as §2, §3

[8] = FIG. 4C, altered domain compared to peptide 2

| Substance | binding to the 72A1 antibody [2] | anti-peptide antibody levels in IVIG [4] [pg/mL] | average anti-peptide antibody concentration [5] [pg/mL] | average antibody concentration recognizing native gp350 [6] [pg/mL] | also measured |
| --- | --- | --- | --- | --- | --- |
| 72A1 antibody: well-known mouse monoclonal antibody (IgG1 isotype), EBV gp350 neutralizing, commercially available |  |  |  |  | block of P3HR1 EBV super-infection of Raji cells [1]: block P3HR1 virus superinfection of Raji cells |
| AAAAAAAAQNPVYLIPETVPYIKWDN (SEQ ID NO: 33) (Epstein-Barr virus) [Peptide 2.2, Ala substitution of domain 1 of peptide 2] |  |  |  |  | binding activity compared to parental peptide 2 ([2]; FIG. 6B, peptide 2 = 100%): 56%; reduction in recognition of p2 by 72A1 antibody [3, 8]: 50% |
| DDRTLQLAAAPVAALIPAVVPAIAWAA (SEQ ID NO: 34) (Epstein-Barr virus) [Peptide 2.3, Domain 1-LA-altered Domain 2] |  |  |  |  | binding to the 72A1 monoclonal antibody ([2]; FIGS. 6A and 6B, alanine substitutions): did not bind; recognition of p2 by 72A1 antibody after domain alteration [3, 8]: abolished recognition |
| DDRTLQLAQNPVYLIPETVPYIKWDN (SEQ ID NO: 4) (Epstein-Barr virus) [Peptide 2] | strongly bound | 2.16 ± 0.08 | 122 ± 67 | 1.3 ± 0.9 | inhibition of 72A1 antibody recognition of gp350 protein [3]: 78%; inhibition of 72A1 recognition of gp350 by antisera [7]: 38% |
| EEKSAEAAQQPADAAPDSAPDAKMDQ (SEQ ID NO: 32) (Epstein-Barr virus) [Peptide 2.1, 72a1 positive mimeotope] |  |  |  |  | Notes: reactivity with the 72A1 monoclonal antibody [2]: 72a1 positive |
| GSAKPGNGSYFASVKTEMLGNEID (SEQ ID NO: 27) (Epstein-Barr virus) [Peptide 3, gp350 mimetic peptide encompassing the central area of the purported gp350 neutralizing domain] | did not bind | 1.7 ± 0.06 | 981 ± 577 | 4.1 ± 2.4 | inhibition of 72A1 antibody recognition of gp350 protein [3]: 8%; inhibition of 72A1 recognition of gp350 by antisera [7]: 23% |
| SKAPESTTTSPTLNTTGFADY (SEQ ID NO: 31) (Epstein-Barr virus) [Peptide 1, reference compound] | did not bind | 1.83 ± 0.07 | 97 ± 46 | 0.015 ± 0.01 | ELISA activity with 72A1 ([2]; FIG. 6A, value subtracted from the peptide 2 series before plotting): 0.355 OD; Notes: reactivity with the 72A1 monoclonal antibody [2]: 72A1 non-reactive |
